Converted amounts (≈) assume the structure as drawn.
These compounds were tested on S. aureus (assay: Minimum inhibitory concentrations (MICs) for S. aureus of exemplary compounds (Table 2)). Conditions: Staphylococcus aureus, minimum inhibitory concentrations for S. aureus; read-out: MICs.
Type: cell-based
Description: Exemplary compounds in accordance with the invention are listed in Table 2 with their minimum inhibitory concentrations (MICs) (μg/mL) for S. aureus:
Furthermore, the antibiotic compounds can be assayed for anti-proliferative or anti-infective properties on a cellular level. For example, where the target organism is a microorganism, the activity of compounds of interest can be assayed by growing the microorganisms of interest in media either containing or lacking the compound. Growth inhibition can be indicative that the molecule could be acting as a protein synthesis inhibitor. […] For this purpose, a panel of bacterial strains can be assembled to include a variety of target pathogenic species, some containing resistance mechanisms that have been characterized. Use of such a panel of organisms permits the determination of structure-activity relationships not only in regards to potency and spectrum, but also with a view to obviating resistance mechanisms. The assays can be performed in microtiter trays according to conventional methodologies as published by The National Committee for Clinical Laboratory Standards (NCCLS) guidelines (NCCLS. M7-A5-Methods for Dilution Antimicrobial Susceptibility Tests for Bacteria That Grow Aerobically; Approved Standard-Fifth Edition. NCCLS Document M100-S12/M7 (ISBN 1-56238-394-9)).

Point of comparison: `CC(=O)NC[C@H]1CN(c2ccc(-c3ccc(CN4CC[C@@H](N)C4)cc3)c(F)c2)C(=O)O1` [Compound 1091, N-{3-[4′-(3-(R)-Amino-pyrrolidin-1-ylmethyl)-2-fluoro-biphenyl-4-yl]-2-oxo-oxazolidin-5-(S)-ylmethyl}-acetamide], MIC 2 µg/mL (≈ 4.69 µM). Against it:
- COc1cc(CN(C)Cc2ccncc2)ccc1-c1ccc(N2C[C@H](CNC(C)=O)OC2=O)cc1F [Compound 4033, N-(3-{2-Fluoro-2′-methoxy-4′-[(methyl-pyridm-4-ylmethyl-amino)-methyl]-biphenyl-4-yl}-2-oxo-oxazolidin-5-(S)-ylmethyl)-acetamide] — 4-fold higher, 8 µg/mL (≈ 16.2 µM)
- CC(=O)NC[C@H]1CN(c2ccc(-c3ccc(S(=O)(=O)Cc4cc[n+]([O-])cc4)cc3)c(F)c2)C(=O)O1 [Compound 3004, N-{3-[2-Fluoro-4′-(1-oxy-pyridin-4-ylmethanesulfonyl)-biphenyl-4-yl]-2-oxo-oxazolidin-5-(S)-ylmethyl}-acetamide] — 2-fold higher, 4 µg/mL (≈ 8.01 µM)
- CC(=O)NC[C@H]1CN(c2ccc(-c3ccc(Cn4cnc5c(Cl)ncnc54)cc3)c(F)c2)C(=O)O1 [Compound 1100, N-{3-[4′-(6-Chloro-purin-9-ylmethyl)-2-fluoro-biphenyl-4-yl]-2-oxo-oxazolidin-5-(S)-ylmethyl}-acetamide] — 2-fold lower, 1 µg/mL (≈ 2.02 µM)
- CC(=O)NC[C@H]1CN(c2ccc(-c3ccc(C(=O)NCc4ccco4)cc3)c(F)c2)C(=O)O1 [Compound 4111, 4′-[5-(S)-(Acetylamino-methyl)-2-oxo-oxazolidin-3-yl]-2′-fluoro-biphenyl-4-carboxylic acid (furan-2-ylmethyl)-amide] — the same, 2 µg/mL (≈ 4.43 µM)
- CC(=O)NC[C@H]1CN(c2ccc(-c3ccc(CNC(=O)/C=C/c4c(C)[nH]c(=O)[nH]c4=O)cc3)c(F)c2)C(=O)O1 [Compound 4001, N-{4′-[5-(S)-(Acetylamino-methyl)-2-oxo-oxazolidin-3-yl]-2′-fluoro-biphenyl-4-ylmethyl}-3-(6-methyl-2,4-dioxo-1,2,3,4-tetrahydro-pyrimidin-5-yl)-acrylamide] — 8-fold lower, 0.25 µg/mL (≈ 0.467 µM)
- CC(=O)NC[C@H]1CN(c2ccc(-c3ccc(CN(C)Cc4cc(Cl)cc(Cl)c4)cc3)c(F)c2)C(=O)O1 [Compound 4046, N-[3-(4′-{[(3,5-Dichloro-benzyl)-methyl-amino]-methyl}-2-fluoro-biphenyl-4-yl)-2-oxo-oxazolidin-5-(S)-ylmethyl]-acetamide] — 2-fold higher, 4 µg/mL (≈ 7.54 µM)
- CC(=O)NC[C@H]1CN(c2ccc(-c3ccc([C@H](O)CN4CCN(C=O)CC4)cc3)c(F)c2)C(=O)O1 [Compound 1044, N-(3-{2-Fluoro-4′-[2-(4-formyl-piperazin-1-yl)-1-(S)-hydroxy-ethyl]-biphenyl-4-yl}-2-oxo-oxazolidin-5-(S)-ylmethyl)-acetamide] — 4-fold lower, 0.5 µg/mL (≈ 1.03 µM)
- CC(=O)NC[C@H]1CN(c2ccc(-c3ccc(Cn4ncnn4)cc3)c(F)c2)C(=O)O1 [Compound 1056, N-[3-(2-Fluoro-4′-tetrazol-2-ylmethyl-biphenyl-4-yl)-2-oxo-oxazolidin-5-(S)-ylmethyl]-acetamide] — 8-fold lower, 0.25 µg/mL (≈ 0.609 µM)
- CC(=O)NC[C@H]1CN(c2ccc(-c3ccc(C(=O)NCc4cocn4)cc3)c(F)c2)C(=O)O1 [Compound 4205, 4′-[5-(S)-(Acetylamino-methyl)-2-oxo-oxazolidin-3-yl]-2′-fluoro-biphenyl-4-carboxylic acid (oxazol-4-ylmethyl)-amide] — 2-fold lower, 1 µg/mL (≈ 2.21 µM)
- CC(=O)NC[C@H]1CN(c2ccc(-c3ccc(CCNCc4ccncc4)cc3)c(F)c2)C(=O)O1 [Compound 4149, N-[3-(2-Fluoro-4′-{2-[(pyridin-4-ylmethyl)-amino]-ethyl}-biphenyl-4-yl)-2-oxo-oxazolidin-5-(S)-ylmethyl]-acetamide] — 2-fold lower, 1 µg/mL (≈ 2.16 µM)
- CC(=O)NC[C@H]1CN(c2ccc(-c3ccc(C[S+]([O-])c4ncnn4C)cc3)c(F)c2)C(=O)O1 (stereo partly drawn) [Compound 2039, N-{3-[2-Fluoro-4′-(2-methyl-2H-[1,2,4]triazole-3-sulfinylmethyl)-biphenyl-4-yl]-2-oxo-oxazolidin-5-(S)-ylmethyl}-acetamide] — the same, 2 µg/mL (≈ 4.24 µM)
- CC(=O)NC[C@H]1CN(c2ccc(-c3ccc(CNCC4CCN(C(=O)OC(C)(C)C)CC4)cc3)c(F)c2)C(=O)O1 [Compound 4298, 4-[({4′-[5-(S)-(Acetylamino-methyl)-2-oxo-oxazolidin-3-yl]-2′-fluoro-biphenyl-4-ylmethyl}-amino)-methyl]-piperidine-1-carboxylic acid tert-butylester] — 4-fold higher, 8 µg/mL (≈ 14.4 µM)
- CC(=O)NC[C@H]1CN(c2ccc(-c3ccc(CN4CCCO4)cc3)c(F)c2)C(=O)O1 [Compound 1112, N-[3-(2-Fluoro-4′-isoxazolidin-2-ylmethyl-biphenyl-4-yl)-2-oxo-oxazolidin-5-(S)-ylmethyl]-acetamide] — 2-fold lower, 1 µg/mL (≈ 2.42 µM)
- CC(=O)NC[C@H]1CN(c2ccc(-c3ccc(CNNc4ccccn4)cc3)c(F)c2)C(=O)O1 [Compound 2048, N-{3-[2-Fluoro-4′-(N′-pyridin-2-yl-hydrazinomethyl)-biphenyl-4-yl]-2-oxo-oxazolidin-5-(S)-ylmethyl}-acetamide] — 4-fold lower, 0.5 µg/mL (≈ 1.11 µM)
- CC(=O)NC[C@H]1CN(c2ccc(-c3ccc(CNCc4nn(C)cc4Br)cc3)c(F)c2)C(=O)O1 [Compound 4168, N-[3-(4′-{[(4-Bromo-1-methyl-1H-pyrazol-3-ylmethyl)-amino]-methyl}-2-fluoro-biphenyl-4-yl)-2-oxo-oxazolidin-5-(S)-ylmethyl]-acetamide] — the same, 2 µg/mL (≈ 3.77 µM)
- CC(=O)NC[C@H]1CN(c2ccc(-c3ccc(CNCc4ccncc4)c(F)c3)c(F)c2)C(=O)O1 [Compound 4155, N-[3-(2,3′-Difluoro-4′-{[(pyridin-4-ylmethyl)-amino]-methyl}-biphenyl-4-yl)-2-oxo-oxazolidin-5-(S)-ylmethyl]-acetamide] — the same, 2 µg/mL (≈ 4.29 µM)
- CC(=O)NC[C@H]1CN(c2ccc(-c3ccc(CSc4ncnn4C)cc3)c(F)c2)C(=O)O1 [Compound 2033, N-{3-[2-Fluoro-4′-(2-methyl-2H-[1,2,4]triazol-3-ylsulfanylmethyl)-biphenyl-4-yl]-2-oxo-oxazolidin-5-(S)-ylmethyl}-acetamide] — 2-fold lower, 1 µg/mL (≈ 2.2 µM)
- Cn1nnnc1SC[C@H]1CN(c2ccc(-c3ccc(CNCc4ccncc4)cc3)c(F)c2)C(=O)O1 [Compound 4231, 3-(2-Fluoro-4′-{[(pyridin-4-ylmethyl)-amino]-methyl}-biphenyl-4-yl)-5-(R)-(1-methyl-1H-tetrazol-5-ylsulfanylmethyl)-oxazolidin-2-one] — 16-fold higher, 32 µg/mL (≈ 63.3 µM)
- CC(=O)NC[C@H]1CN(c2ccc(-c3ccc(Cn4ccnn4)cc3)c(F)c2)C(=O)O1 [Compound 1015, N-[3-(2-Fluoro-4′-[1,2,3]triazol-1-ylmethyl-biphenyl-4-yl)-2-oxo-oxazolidin-5-(S)-ylmethyl]-acetamide] — 8-fold lower, 0.25 µg/mL (≈ 0.611 µM)
- CC(=O)NC[C@H]1CN(c2ccc(-c3ccc(C[S+]([O-])Cc4ccccn4)cc3)c(F)c2)C(=O)O1 (stereo partly drawn) [Compound 4217, N-{3-[2-Fluoro-4′-(pyridin-2-ylmethanesulfinylmethyl)-biphenyl-4-yl]-2-oxo-oxazolidin-5-(S)-ylmethyl}-acetamide] — 2-fold lower, 1 µg/mL (≈ 2.08 µM)
- CC(=O)NC[C@H]1CN(c2ccc(-c3ccc(CNc4nc(CN)ns4)cc3)c(F)c2)C(=O)O1 [Compound 2012, N-(3-{4′-[(3-Aminomethyl-[1,2,4]thiadiazol-5-ylamino)-methyl]-2-fluoro-biphenyl-4-yl}-2-oxo-oxazolidin-5-(S)-ylmethyl)-acetamide] — 2-fold lower, 1 µg/mL (≈ 2.13 µM)
- CC(=O)NC[C@H]1CN(c2ccc(-c3ccc(CN(C)Cc4ccncc4)cc3)c(F)c2)C(=O)O1 [Compound 4044, N-(3-{2-Fluoro-4′-[(methyl-pyridin-4-ylmethyl-amino)-methyl]-biphenyl-4-yl}-2-oxo-oxazolidin-5-(S)-ylmethyl)-acetamide] — 2-fold lower, 1 µg/mL (≈ 2.16 µM)
- CC(=O)NC[C@H]1CN(c2ccc(-c3ccc(CNCc4c[nH]nc4-c4cccs4)cc3)c(F)c2)C(=O)O1 [Compound 4127, N-[3-(2-Fluoro-4′-{[(3-thiophen-2-yl-1H-pyrazol-4-ylmethyl)-amino]-methyl}-biphenyl-4-yl)-2-oxo-oxazolidin-5-(S)-ylmethyl]-acetamide] — 4-fold lower, 0.5 µg/mL (≈ 0.962 µM)
- CC(=O)NC[C@H]1CN(c2ccc(-c3ccc(CNCc4ccncc4F)cc3)c(F)c2)C(=O)O1 [Compound 4179, N-[3-(2-Fluoro-4′-{[(3-fluoro-pyridin-4-ylmethyl)-amino]-methyl}-biphenyl-4-yl)-2-oxo-oxazolidin-5-(S)-ylmethyl]-acetamide] — the same, 2 µg/mL (≈ 4.29 µM)
- CC(=O)NC[C@H]1CN(c2ccc(-c3ccc(C(N)c4nnn(C)n4)cc3)c(F)c2)C(=O)O1 (mixture of isomers) [Compound 1042, N-(3-{4′-[Amino-(2-methyl-2H-tetrazol-5-(R/S)-yl)-methyl]-2-fluoro-biphenyl-4-yl}-2-oxo-oxazolidin-5-(S)-ylmethyl)-acetamide] — 32-fold higher, 64 µg/mL (≈ 146 µM)
- CC(=O)NC[C@H]1CN(c2ccc(-c3ccc(CN[C@H]4CCCNC4=O)cc3)c(F)c2)C(=O)O1 [Compound 2059, N-(3-{2-Fluoro-4′-[(2-oxo-piperidin-3-(S)-ylamino)-methyl]-biphenyl-4-yl}-2-oxo-oxazolidin-5-(S)-ylmethyl)-acetamide] — the same, 2 µg/mL (≈ 4.4 µM)
- CC(=O)NC[C@H]1CN(c2ccc(-c3ccc(CN(Cc4csnn4)C(C)=O)cc3)c(F)c2)C(=O)O1 [Compound 4204, N-(3-{4′-[(Acetyl-[1,2,3]thiadiazol-4-ylmethyl-amino)-methyl]-2-fluoro-biphenyl-4-yl}-2-oxo-oxazolidin-5-(S)-ylmethyl)-acetamide] — the same, 2 µg/mL (≈ 4.02 µM)
